Drawing on patent US10639284B2, “Immunomodulator compounds” (CHEMOCENTRYX, INC., priority 2016, dated 2020), this text covers IC50 for 54 compounds.

Chain of human PD-L1 / Human PD-1 (Q9NZQ7 19-239): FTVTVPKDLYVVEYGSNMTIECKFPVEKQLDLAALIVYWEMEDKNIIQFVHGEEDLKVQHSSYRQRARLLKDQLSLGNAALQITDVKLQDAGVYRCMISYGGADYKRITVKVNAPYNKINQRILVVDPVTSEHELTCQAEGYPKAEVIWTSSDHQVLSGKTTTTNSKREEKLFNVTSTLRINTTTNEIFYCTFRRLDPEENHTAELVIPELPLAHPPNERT

In one assay the target is human PD-L1 / Human PD-1 (Homo sapiens (Human), UniProt Q9NZQ7). Description: Enzyme-Linked Immunosorbent Assay (ELISA), PD-1/PD-L1 binding. To be noted: Table 2; plate-coated human PD-L1, biotinylated human PD-1; read-out: ELISA IC50. The method, boiled down:
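Human PD-L1 coated at 1 μg/mL overnight at 4° C; samples diluted 1:5 and incubated with human PD-1 and biotin (0.3 μg/mL) for 1 h at 37° C. Bound PD-1 detected with streptavidin-HRP and TMB (20 min, 37° C), acid-stopped, absorbance at 450 nm.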
For orientation: In an ELISA, binding on a coated surface is turned into a signal by an enzyme label.
The IC50 is the midpoint of a concentration-inhibition curve. Turning to `COC(=O)[C@H](CO)NCc1cc(Cl)c(O[C@H]2CCc3c(-c4ccccc4F)cccc32)cc1OCc1cncc(C#N)c1` [Example 2.140], the IC50 was less than 100 nM.

For the compound `C[C@@H](NCc1cc(Cl)c(O[C@H]2CCc3c(-c4ccccc4F)cccc32)cc1OCc1cncc(C#N)c1)C(=O)O` [Example 2.141], the IC50 is less than 100 nM. The same measure, in the same setting: under `COc1cccc(-c2cccc3c2CC[C@@H]3Oc2cc(OCc3cncc(C#N)c3)c(CNCC(C)(C)O)cc2Cl)c1F` [Example 2.142] stands 100 to 500 nM; under `CC(C)(O)CNCc1cc(Cl)c(O[C@H]2CCc3c(-c4ccccc4F)cccc32)cc1OCc1cncc(C#N)c1` [Example 2.143], 100 to 500 nM. On the same count and under the same terms, under `N#Cc1cncc(COc2cc(O[C@H]3CCc4c(-c5ccccc5F)cccc43)c(Cl)cc2CNC2(C(=O)O)CC2)c1` [Example 2.144] stands less than 100 nM; under `N#Cc1cncc(COc2cc(O[C@H]3CCc4c(-c5ccccc5F)cccc43)c(Cl)cc2CNC2(C(=O)O)CCC2)c1` [Example 2.145], less than 100 nM. Turning to `C[C@@H](O)[C@H](NCc1cc(Cl)c(O[C@@H]2c3cccc(-c4ccccc4F)c3C[C@H]2F)cc1OCc1cncc(C#N)c1)C(=O)O` [Example 2.146], the IC50 is less than 100 nM. Still for that read-out and setting: next, `N#Cc1cncc(COc2cc(O[C@@H]3c4cccc(-c5ccccc5F)c4C[C@H]3F)c(Cl)cc2CN[C@@H](CO)C(=O)O)c1` [Example 2.147]: less than 100 nM.

`N#Cc1cncc(COc2cc(O[C@@H]3c4cccc(-c5ccccc5F)c4C[C@H]3F)c(Cl)cc2CN2CCC(O)CC2)c1` [Example 2.148]: the IC50 is 500 to 20000 nM. Still for that read-out and setting: under `C[C@@H](O)[C@H](NCc1cc(Cl)c(O[C@H]2CCc3c(-c4ccccc4F)cccc32)cc1OCc1cncc(C#N)c1)C(N)=O` [Example 2.149] stands 100 to 500 nM; under `N#Cc1cncc(COc2cc(O[C@H]3CCc4c(-c5ccccc5F)cccc43)c(Cl)cc2CNCc2nc(=O)o[nH]2)c1` [Example 2.150], 100 to 500 nM. On to `N#Cc1cncc(COc2cc(O[C@H]3CCc4c(-c5ccccc5F)cccc43)c(Cl)cc2CNCC(=O)NO)c1` [Example 2.151], for which the IC50 lay in the range of 500 to 20000 nM.

For `CC(CO)(NCc1cc(Cl)c(O[C@H]2CCc3c(-c4ccccc4F)cccc32)cc1OCc1cncc(C#N)c1)C(=O)O` (stereo partly drawn) [Example 2.152], the 50% inhibitory concentration (IC50) was less than 100 nM.

As to `CCOc1cc(O[C@H]2CCc3c(-c4ccccc4F)cccc32)c(Cl)cc1CN[C@@H](C)C(=O)O` [Example 2.153], the IC50 lay within 100 to 500 nM. Consider `CCOc1cc(O[C@H]2CCc3c(-c4ccccc4F)cccc32)c(Cl)cc1CN[C@@H](C)C(=O)O` [Example 2.154], for which the IC50 was 100 to 500 nM. Turning to `CCOc1cc(O[C@H]2CCc3c(-c4ccccc4F)cccc32)c(Cl)cc1CN[C@H](CO)C(=O)O` [Example 2.155], the IC50 lay within 100 to 500 nM.

For the compound `CCOc1cc(O[C@H]2CCc3c(-c4ccccc4F)cccc32)c(Cl)cc1CN[C@H](CO)C(=O)O` [Example 2.156], the IC50 is 100 to 500 nM.

As for `CCOc1cc(O[C@H]2CCc3c(-c4ccccc4F)cccc32)c(Cl)cc1CN[C@H](C(=O)O)[C@@H](C)O` [Example 2.157], the IC50 lay in the range of 100 to 500 nM.

`CCOc1cc(O[C@H]2CCc3c(-c4ccccc4F)cccc32)c(Cl)cc1CN[C@H](C(=O)O)[C@@H](C)O` [Example 2.158]: the IC50 was 100 to 500 nM.

With `C[C@@](CO)(NCc1cc(Cl)c(O[C@H]2CCc3c(-c4ccccc4F)cccc32)cc1-c1cncc(C#N)c1)C(=O)O` [Example 2.159], the IC50 is less than 100 nM. Same read-out and setting: under `C[C@@H](O)[C@H](NCc1cc(Cl)c(O[C@H]2CCc3c(-c4ccc5c(c4Cl)OCCO5)cccc32)cc1OCc1cncc(C#N)c1)C(=O)O` [Example 2.160] stands less than 100 nM; under `N#Cc1cncc(COc2cc(O[C@H]3CCc4c(-c5ccc6c(c5Cl)OCCO6)cccc43)c(Cl)cc2CN[C@@H](CO)C(=O)O)c1` [Example 2.161], less than 100 nM; under `CCOC(=O)[C@H](CO)NCc1cc(Cl)c(O[C@H]2CCc3c(-c4ccccc4F)cccc32)cc1OCc1cncc(C#N)c1` [Example 2.162], 500 to 20000 nM. Take `C[C@H](NCc1cc(Cl)c(O[C@H]2CCc3c(-c4ccc5c(c4Cl)OCCO5)cccc32)cc1OCc1cncc(C#N)c1)C(=O)O` [Example 2.163]: the IC50 lay in the range of 100 to 500 nM.

Consider `CCOc1cc(O[C@H]2CCc3c(-c4ccccc4F)cccc32)c(Cl)cc1CNC(CO)(CO)CO` [Example 2.164], for which the IC50 is less than 100 nM. On the same count and under the same terms, next, `N#Cc1cncc(COc2cc(O[C@H]3CCc4c(-c5ccccc5F)cccc43)c(Cl)cc2CNC2(C(=O)O)CCCC2)c1` [Example 2.165]: less than 100 nM. On the same count and under the same terms, next, `N#Cc1cncc(COc2cc(O[C@H]3CCc4c(-c5ccccc5F)cccc43)c(Cl)cc2CNC(CO)C(=O)NO)c1` (stereo partly drawn) [Example 2.166]: 100 to 500 nM; `N#Cc1cncc(COc2cc(O[C@H]3CCc4c(-c5ccccc5F)cccc43)c(Cl)cc2CN[C@@H](CO)C(N)=O)c1` [Example 2.167]: 100 to 500 nM; `C[C@H](NCc1cc(Cl)c(O[C@H]2CCc3c(-c4ccccc4F)cccc32)cc1OCc1cncc(C#N)c1)C(N)=O` [Example 2.168]: 100 to 500 nM. Consider `CC(C)OC(=O)[C@@H](NCc1cc(Cl)c(O[C@H]2CCc3c(-c4ccccc4F)cccc32)cc1OCc1cncc(C#N)c1)[C@@H](C)O` [Example 2.169], for which the half-inhibitory concentration (IC50) is 500 to 20000 nM.

With `N#Cc1cncc(COc2cc(O[C@H]3CCc4c(-c5ccccc5F)cccc43)c(Cl)cc2CNC(C(N)=O)C(N)=O)c1` [Example 2.170], the IC50 lay in the range of 500 to 20000 nM. Same read-out and setting: under `N#Cc1cncc(COc2cc(O[C@H]3CCc4c(-c5ccccc5F)cccc43)c(Cl)cc2CNCC(N)=O)c1` [Example 2.171] stands 100 to 500 nM.

`CC(C)OC(=O)[C@H](CO)NCc1cc(Cl)c(O[C@H]2CCc3c(-c4ccccc4F)cccc32)cc1OCc1cncc(C#N)c1` [Example 2.172]: the IC50 was in the range of 500 to 20000 nM. Turning to `N#Cc1cncc(COc2cc(O[C@H]3CCc4c(-c5ccccc5F)cccc43)c(Cl)cc2CNC(=O)CCCC(=O)O)c1` [Example 2.173], the IC50 was 500 to 20000 nM.

In the case of `N#Cc1cncc(COc2cc(O[C@H]3CCc4c(-c5ccccc5F)cccc43)c(Cl)cc2CN[C@@H]2[C@@H]3CC[C@@H](C3)[C@@H]2C(=O)O)c1` [Example 2.174], the IC50 was 500 to 20000 nM.

As to `N#Cc1cncc(COc2cc(O[C@H]3CCc4c(-c5ccccc5F)cccc43)c(Cl)cc2CN[C@@H](C(=O)O)c2ccc(O)cc2)c1` [Example 2.175], the IC50 lay within 100 to 500 nM. Take `N#Cc1cncc(COc2cc(O[C@H]3CCc4c(-c5ccccc5F)cccc43)c(Cl)cc2CN[C@@H](C(=O)O)c2ccccc2)c1` [Example 2.176]: the IC50 was less than 100 nM. Still for that read-out and setting: next, `CCOc1cc(O[C@H]2CCc3c(-c4ccccc4F)cccc32)c(Cl)cc1CNC(C)(CO)C(=O)O` (stereo partly drawn) [Example 2.177]: 100 to 500 nM; `N#Cc1cncc(COc2cc(O[C@H]3CCc4c(-c5ccccc5F)cccc43)c(Cl)cc2CN[C@H](C(=O)O)c2ccccc2)c1` [Example 2.178]: 100 to 500 nM.

The assay is the same for the next values; noted with them: Table 3; plate-coated human PD-L1, biotinylated human PD-1; read-out: ELISA IC50.
On to `CS(=O)(=O)c1cc(COc2cc(O[C@H]3CCc4c(-c5ccccc5F)cccc43)c(Cl)cc2CN[C@@H](CO)C(=O)O)cc(S(C)(=O)=O)c1` [Example 3.001], for which the IC50 was less than 100 nM. On the same count and under the same terms, next, `N#Cc1cc(C#N)cc(COc2cc(O[C@H]3CCc4c(-c5ccc6c(c5)OCCO6)cccc43)c(Cl)cc2CN[C@@H](CO)C(=O)O)c1` [Example 3.002]: less than 100 nM; `N#Cc1cc(C#N)cc(COc2cc(O[C@H]3CCc4c(-c5ccccc5F)cccc43)c(Cl)cc2CN[C@@H](CO)C(=O)O)c1` [Example 3.004]: less than 100 nM.

Take `C[C@@](CO)(NCc1cc(Cl)c(O[C@H]2CCc3c(-c4ccc5c(c4F)OCCO5)cccc32)cc1OCc1cc(C#N)cc(C#N)c1)C(=O)O` [Example 3.005]: the IC50 is less than 100 nM. As to `N#Cc1cc(C#N)cc(COc2cc(O[C@H]3CCc4c(-c5ccc6c(c5F)OCCO6)cccc43)c(Cl)cc2CN[C@@H](CO)C(=O)O)c1` [Example 3.006], the IC50 was less than 100 nM. Still for that read-out and setting: under `N#Cc1cncc(COc2cc(O[C@H]3CCc4c(-c5cc6c(cc5F)OCCO6)cccc43)c(Cl)cc2CN[C@H](O)CO)c1` [Example 3.007] stands less than 100 nM; under `N#Cc1cncc(COc2cc(O[C@H]3CCc4c(-c5ccc6c(c5F)OCCO6)cccc43)c(Cl)cc2CN[C@@H](CO)C(=O)O)c1` [Example 3.008], less than 100 nM; under `C[C@@](CO)(NCc1cc(Cl)c(O[C@H]2CCc3c(-c4ccc5c(c4F)OCCO5)cccc32)cc1OCc1cncc(C#N)c1)C(=O)O` [Example 3.009], less than 100 nM. Same read-out and setting: next, `CS(=O)(=O)c1cncc(COc2cc(O[C@H]3CCc4c(-c5ccc6c(c5F)OCCO6)cccc43)c(Cl)cc2CN[C@@H](CO)C(=O)O)c1` [Example 3.010]: less than 100 nM; `N#Cc1cncc(COc2cc(O[C@H]3CCc4c(-c5cc6c(c(F)c5F)OCCO6)cccc43)c(Cl)cc2CN[C@@H](CO)C(=O)O)c1` [Example 3.011]: less than 100 nM; `O=C(O)[C@H](CO)NCc1cc(Cl)c(O[C@H]2CCc3c(-c4ccc5c(c4F)OCCO5)cccc32)cc1OCc1cc(F)cc(F)c1` [Example 3.012]: 500 to 20000 nM. The same measure, in the same setting: next, `O=C(O)[C@H](CO)NCc1cc(Cl)c(O[C@H]2CCc3c(-c4ccc5c(c4F)OCCO5)cccc32)cc1OCc1cc(F)cc(Cl)c1` [Example 3.013]: 500 to 20000 nM; `O=C(O)[C@H](CO)NCc1cc(Cl)c(O[C@H]2CCc3c(-c4ccc5c(c4F)OCCO5)cccc32)cc1OCc1cc(Cl)cc(Cl)c1` [Example 3.014]: 500 to 20000 nM.

Consider `N#Cc1cc(Cl)cc(COc2cc(O[C@H]3CCc4c(-c5ccc6c(c5F)OCCO6)cccc43)c(Cl)cc2CN[C@@H](CO)C(=O)O)c1` [Example 3.015], for which the IC50 was less than 100 nM.

For the compound `COc1cccc(-c2cccc3c2CC[C@@H]3Oc2cc(OCc3cc(C#N)cc(C#N)c3)c(CN[C@@H](CO)C(=O)O)cc2Cl)c1Cl` [Example 3.016], the IC50 was less than 100 nM.
